compound: NC(=O)CCCCC1CCSS1 [lipoamide]; experiment: thermal stability z-score vs DMSO; higher = more thermally stabilized by treatment; conditions: HeLa; lipoamide concentration 100 µM; arsenate co-treatment: none
Procedure: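 Cellular thermal proteome profiling in HeLa cells. Cells were treated with 100 µM lipoamide for 1 h, with or without 1 mM arsenate for a further 1 h, then heated to ten temperatures (37-66.3 °C), and soluble protein was quantified by TMT mass spectrometry relative to 0.1% DMSO controls. The thermal stability score (sum of log2 fold changes minus the abundance score) was transformed to a z-score; mean of n = 3 experiments.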
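Also: each temperature applied for 3 min, abundance score taken as mean log2 fold change at the two lowest temperatures, z-score obtained by mean subtraction and division by SD.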

Chain of UniProt Q9NXV6 (Q9NXV6 whole entry): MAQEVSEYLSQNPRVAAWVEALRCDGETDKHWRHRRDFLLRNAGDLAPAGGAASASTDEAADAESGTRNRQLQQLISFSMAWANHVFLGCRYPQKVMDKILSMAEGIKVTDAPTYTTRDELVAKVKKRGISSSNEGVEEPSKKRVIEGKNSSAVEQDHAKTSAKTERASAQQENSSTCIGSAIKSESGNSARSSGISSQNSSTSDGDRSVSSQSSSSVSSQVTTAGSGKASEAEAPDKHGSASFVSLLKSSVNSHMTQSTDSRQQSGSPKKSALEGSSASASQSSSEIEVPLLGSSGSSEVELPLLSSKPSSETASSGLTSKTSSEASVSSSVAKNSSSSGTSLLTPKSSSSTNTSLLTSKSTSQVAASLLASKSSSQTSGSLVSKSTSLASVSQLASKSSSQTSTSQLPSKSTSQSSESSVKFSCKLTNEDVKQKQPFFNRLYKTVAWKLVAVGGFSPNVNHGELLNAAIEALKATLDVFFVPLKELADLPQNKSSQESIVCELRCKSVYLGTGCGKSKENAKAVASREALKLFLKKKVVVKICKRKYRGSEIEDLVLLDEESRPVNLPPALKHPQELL
Chain of UniProt Q96Q06 (Q96Q06 whole entry): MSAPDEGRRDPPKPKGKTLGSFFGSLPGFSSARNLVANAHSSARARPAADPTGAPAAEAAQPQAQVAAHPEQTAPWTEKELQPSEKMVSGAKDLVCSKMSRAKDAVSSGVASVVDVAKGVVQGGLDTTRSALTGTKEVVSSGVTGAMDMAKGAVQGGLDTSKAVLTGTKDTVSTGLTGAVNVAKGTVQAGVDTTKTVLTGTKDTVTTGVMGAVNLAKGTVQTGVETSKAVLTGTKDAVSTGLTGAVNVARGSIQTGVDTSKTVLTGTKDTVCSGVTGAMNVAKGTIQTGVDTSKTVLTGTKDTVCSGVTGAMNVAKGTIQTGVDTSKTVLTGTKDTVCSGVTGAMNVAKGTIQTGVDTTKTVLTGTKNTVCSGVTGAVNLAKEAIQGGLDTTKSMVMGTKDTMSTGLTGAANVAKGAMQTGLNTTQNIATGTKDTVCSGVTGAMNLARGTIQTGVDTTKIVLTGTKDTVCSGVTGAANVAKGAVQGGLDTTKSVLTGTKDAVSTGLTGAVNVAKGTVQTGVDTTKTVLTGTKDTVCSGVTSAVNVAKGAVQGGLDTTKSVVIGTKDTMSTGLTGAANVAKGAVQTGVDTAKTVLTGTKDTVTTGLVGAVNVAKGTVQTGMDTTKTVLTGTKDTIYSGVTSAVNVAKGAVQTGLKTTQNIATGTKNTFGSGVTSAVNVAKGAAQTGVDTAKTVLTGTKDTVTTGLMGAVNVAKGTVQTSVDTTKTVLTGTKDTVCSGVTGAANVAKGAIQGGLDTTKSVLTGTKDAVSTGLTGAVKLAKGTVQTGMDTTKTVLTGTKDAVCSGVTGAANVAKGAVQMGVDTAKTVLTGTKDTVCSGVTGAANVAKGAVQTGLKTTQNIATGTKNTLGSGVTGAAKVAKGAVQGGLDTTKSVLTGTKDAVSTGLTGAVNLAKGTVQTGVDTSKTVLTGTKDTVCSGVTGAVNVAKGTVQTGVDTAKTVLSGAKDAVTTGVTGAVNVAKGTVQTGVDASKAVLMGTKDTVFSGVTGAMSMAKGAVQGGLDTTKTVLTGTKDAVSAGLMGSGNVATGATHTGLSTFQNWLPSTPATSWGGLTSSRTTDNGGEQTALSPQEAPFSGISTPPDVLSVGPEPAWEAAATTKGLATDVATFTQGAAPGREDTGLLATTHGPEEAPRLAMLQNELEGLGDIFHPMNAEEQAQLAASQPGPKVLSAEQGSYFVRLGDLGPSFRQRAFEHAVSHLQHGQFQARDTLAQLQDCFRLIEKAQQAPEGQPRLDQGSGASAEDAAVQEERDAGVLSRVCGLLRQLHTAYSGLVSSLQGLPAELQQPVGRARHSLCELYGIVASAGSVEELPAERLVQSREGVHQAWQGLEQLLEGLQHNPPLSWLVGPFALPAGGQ
Chain of UniProt Q9BT78 (Q9BT78 whole entry): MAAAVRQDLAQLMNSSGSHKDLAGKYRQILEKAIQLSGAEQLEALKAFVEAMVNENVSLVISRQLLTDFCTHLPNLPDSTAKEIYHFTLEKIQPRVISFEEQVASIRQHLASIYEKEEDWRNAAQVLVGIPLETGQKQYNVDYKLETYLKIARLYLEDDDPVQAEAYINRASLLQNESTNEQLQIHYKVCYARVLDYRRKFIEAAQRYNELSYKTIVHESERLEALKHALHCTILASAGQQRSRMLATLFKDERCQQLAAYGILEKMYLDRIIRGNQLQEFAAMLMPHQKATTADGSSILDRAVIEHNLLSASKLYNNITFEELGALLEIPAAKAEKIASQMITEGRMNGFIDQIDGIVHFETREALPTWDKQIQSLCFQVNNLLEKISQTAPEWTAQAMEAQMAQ
Chain of UniProt P10809 (P10809 whole entry): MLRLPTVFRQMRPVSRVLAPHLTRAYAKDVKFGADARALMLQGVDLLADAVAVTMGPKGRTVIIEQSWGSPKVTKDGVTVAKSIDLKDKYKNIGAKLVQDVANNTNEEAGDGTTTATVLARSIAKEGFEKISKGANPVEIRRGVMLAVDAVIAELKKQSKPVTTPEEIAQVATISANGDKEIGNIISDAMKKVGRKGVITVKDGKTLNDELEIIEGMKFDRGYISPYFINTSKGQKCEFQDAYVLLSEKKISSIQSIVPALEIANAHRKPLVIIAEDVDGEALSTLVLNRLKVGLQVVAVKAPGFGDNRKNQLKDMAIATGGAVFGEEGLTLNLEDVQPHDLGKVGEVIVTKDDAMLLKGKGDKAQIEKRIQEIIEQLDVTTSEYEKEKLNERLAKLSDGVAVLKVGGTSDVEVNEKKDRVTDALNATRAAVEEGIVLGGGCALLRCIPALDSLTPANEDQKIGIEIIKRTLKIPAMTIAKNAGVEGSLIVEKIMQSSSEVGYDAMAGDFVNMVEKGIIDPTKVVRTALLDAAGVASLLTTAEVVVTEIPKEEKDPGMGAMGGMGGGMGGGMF
Chain of UniProt Q8TDR0 (Q8TDR0 whole entry): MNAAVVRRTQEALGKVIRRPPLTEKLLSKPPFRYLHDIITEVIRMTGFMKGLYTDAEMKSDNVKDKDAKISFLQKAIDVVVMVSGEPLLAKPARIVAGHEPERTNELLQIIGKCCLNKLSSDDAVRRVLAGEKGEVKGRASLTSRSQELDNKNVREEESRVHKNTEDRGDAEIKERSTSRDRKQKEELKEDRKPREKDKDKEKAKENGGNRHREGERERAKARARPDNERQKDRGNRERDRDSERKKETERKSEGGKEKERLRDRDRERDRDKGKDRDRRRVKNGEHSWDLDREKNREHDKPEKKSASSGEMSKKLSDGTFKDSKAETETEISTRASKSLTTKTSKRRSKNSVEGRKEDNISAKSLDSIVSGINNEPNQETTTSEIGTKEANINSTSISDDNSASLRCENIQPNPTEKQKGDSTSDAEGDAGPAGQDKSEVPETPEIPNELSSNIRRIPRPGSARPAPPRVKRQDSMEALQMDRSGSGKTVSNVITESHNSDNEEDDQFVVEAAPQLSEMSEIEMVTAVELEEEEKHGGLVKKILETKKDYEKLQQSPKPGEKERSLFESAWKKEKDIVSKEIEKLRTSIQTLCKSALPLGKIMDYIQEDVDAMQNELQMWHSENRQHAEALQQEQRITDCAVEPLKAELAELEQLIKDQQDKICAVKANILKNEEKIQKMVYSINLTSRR
Chain of UniProt P40926 (P40926 whole entry): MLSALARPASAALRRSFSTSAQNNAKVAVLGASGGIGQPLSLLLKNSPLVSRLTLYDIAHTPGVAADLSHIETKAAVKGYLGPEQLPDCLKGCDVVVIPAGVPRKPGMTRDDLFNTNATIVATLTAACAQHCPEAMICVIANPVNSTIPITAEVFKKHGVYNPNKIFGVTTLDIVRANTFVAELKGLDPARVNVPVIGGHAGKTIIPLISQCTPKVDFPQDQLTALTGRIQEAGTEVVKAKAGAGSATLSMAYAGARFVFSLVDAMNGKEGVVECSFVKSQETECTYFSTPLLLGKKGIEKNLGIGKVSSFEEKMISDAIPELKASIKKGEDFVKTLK
Chain of UniProt P19784 (P19784 whole entry, looked up): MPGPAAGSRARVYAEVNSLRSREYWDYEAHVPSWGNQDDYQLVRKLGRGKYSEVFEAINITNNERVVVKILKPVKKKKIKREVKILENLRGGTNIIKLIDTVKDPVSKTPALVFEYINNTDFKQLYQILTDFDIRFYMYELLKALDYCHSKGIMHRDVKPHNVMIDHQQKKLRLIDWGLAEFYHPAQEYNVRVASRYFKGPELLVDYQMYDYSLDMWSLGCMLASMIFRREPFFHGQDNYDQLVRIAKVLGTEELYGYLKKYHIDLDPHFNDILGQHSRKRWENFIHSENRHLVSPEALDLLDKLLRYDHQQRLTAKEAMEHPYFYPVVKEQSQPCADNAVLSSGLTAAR
Chain of UniProt Q9NVR0 (Q9NVR0 whole entry): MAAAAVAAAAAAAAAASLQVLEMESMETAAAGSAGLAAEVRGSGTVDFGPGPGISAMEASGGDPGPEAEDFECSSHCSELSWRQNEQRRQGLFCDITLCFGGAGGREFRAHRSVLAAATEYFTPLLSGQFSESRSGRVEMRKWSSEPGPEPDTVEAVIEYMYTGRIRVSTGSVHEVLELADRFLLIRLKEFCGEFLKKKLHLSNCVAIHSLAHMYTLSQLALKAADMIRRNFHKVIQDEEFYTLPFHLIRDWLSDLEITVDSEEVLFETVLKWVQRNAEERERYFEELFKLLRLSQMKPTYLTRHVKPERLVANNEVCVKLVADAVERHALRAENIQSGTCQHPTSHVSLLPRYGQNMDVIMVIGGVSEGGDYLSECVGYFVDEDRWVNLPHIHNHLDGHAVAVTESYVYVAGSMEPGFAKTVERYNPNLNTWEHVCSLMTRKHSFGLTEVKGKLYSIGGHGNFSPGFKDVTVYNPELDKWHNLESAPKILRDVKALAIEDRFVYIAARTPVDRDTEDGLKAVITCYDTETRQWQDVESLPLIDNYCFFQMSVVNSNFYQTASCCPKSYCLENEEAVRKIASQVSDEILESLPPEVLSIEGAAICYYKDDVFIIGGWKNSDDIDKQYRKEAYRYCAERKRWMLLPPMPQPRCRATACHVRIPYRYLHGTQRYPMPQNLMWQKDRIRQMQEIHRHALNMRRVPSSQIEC

Target	thermal stability z-score
GPATCH4 (UniProt Q5T3I0)	0.36
LLGL1 (UniProt Q15334)	-0.324
MICALL1 (UniProt Q8N3F8)	0.212
CHTF18 (UniProt Q8WVB6)	-0.0426
UBE3A (UniProt Q05086)	-0.149
AKR1A1 (UniProt P14550)	-0.302
ZC3H7B (UniProt Q9UGR2)	-0.0985
AKAP10 (UniProt O43572)	-0.105
MBNL1 (UniProt Q9NR56)	-0.277
COPS4 (UniProt Q9BT78)	-0.0548
KLHL11 (UniProt Q9NVR0)	-0.0811
ZNF593 (UniProt O00488)	2.19
PIEZO1 (UniProt Q92508)	0.0689
GPAA1 (UniProt O43292)	-1.12
ARL6IP4 (UniProt Q66PJ3)	-0.0769
TRAF3IP1 (UniProt Q8TDR0)	0.373
PLIN4 (UniProt Q96Q06)	0.324
C20ORF27 (UniProt Q9GZN8)	0.189

Target	thermal stability z-score
RCCD1 (UniProt A6NED2)	0.179
SULT1A4|SULT1A3	0.186
CDKN2AIP (UniProt Q9NXV6)	0.454
B4GALT5 (UniProt O43286)	-0.338
CHD4 (UniProt Q14839)	0.561
HSPD1 (UniProt P10809)	0.0259
CSNK2A2 (UniProt P19784)	0.183
SSBP4 (UniProt Q9BWG4)	1.21
SMS (UniProt P52788)	0.823
ZNF598 (UniProt Q86UK7)	-0.407
MDH2 (UniProt P40926)	0.615
SNX9 (UniProt Q9Y5X1)	-0.0413
C3ORF58 (UniProt Q8NDZ4)	-0.000578
REXO4 (UniProt Q9GZR2)	-0.118
VPS53 (UniProt Q5VIR6)	0.126
ATP5J2 (UniProt P56134)	0.37
TSC22D2 (UniProt O75157)	0.0633
GTPBP8 (UniProt Q8N3Z3)	0.0392

compound: O=[As]([O-])(O)O.[K+] [potassium arsenate]; experiment: as above; conditions: HeLa; arsenate concentration 1 mM
Procedure: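 Cellular thermal proteome profiling in HeLa cells treated with 1 mM arsenate for 1 h (DMSO pretreatment), heated to ten temperatures (37-66.3 °C). Soluble protein was quantified by TMT mass spectrometry relative to DMSO controls; the thermal stability score was transformed to a z-score; mean of n = 3 experiments.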

Target	thermal stability z-score
VPS13C (UniProt Q709C8)	-0.213
NUB1 (UniProt Q9Y5A7)	1.15
MRPL9 (UniProt Q9BYD2)	0.232
CRELD2 (UniProt Q6UXH1)	-0.0409
GHDC (UniProt Q8N2G8)	0.229
NUSAP1 (UniProt Q9BXS6)	0.758
SMCHD1 (UniProt A6NHR9)	-0.528
STK10 (UniProt O94804)	0.146
XIAP (UniProt P98170)	-0.747
UTP14A (UniProt Q9BVJ6)	2.11
FBXL17 (UniProt Q9UF56)	-0.139
ZYX (UniProt Q15942)	-0.00636
TRIP6 (UniProt Q15654)	-5.81
XRN1 (UniProt Q8IZH2)	-0.357
ARL14EP (UniProt Q8N8R7)	-0.3
EMC10 (UniProt Q5UCC4)	0.0739
DAAM1 (UniProt Q9Y4D1)	0.17
SLC38A2 (UniProt Q96QD8)	0.774
TRMT10A (UniProt Q8TBZ6)	0.266
DARS2 (UniProt Q6PI48)	-1.93
SCCPDH (UniProt Q8NBX0)	0.139
DDX24 (UniProt Q9GZR7)	-0.522
HNRNPH3 (UniProt P31942)	-0.243
DDX11 (UniProt Q96FC9)	1.07

Target	thermal stability z-score
C18ORF25 (UniProt Q96B23)	0.363
FAAP100 (UniProt Q0VG06)	-0.167
CAND1 (UniProt Q86VP6)	-0.122
DNAJC9 (UniProt Q8WXX5)	-2.09
TOM1L1 (UniProt O75674)	-0.623
SPATA5 (UniProt Q8NB90)	-0.0295
COX7A2L (UniProt O14548)	-0.221
NDUFA7 (UniProt O95182)	0.128
MEPCE (UniProt Q7L2J0)	1.22
RANBP1 (UniProt P43487)	0.475
PTK2 (UniProt Q05397)	-0.0048
GPATCH4 (UniProt Q5T3I0)	0.695
LLGL1 (UniProt Q15334)	-0.755
MICALL1 (UniProt Q8N3F8)	-0.602
CHTF18 (UniProt Q8WVB6)	-0.0702
UBE3A (UniProt Q05086)	0.3
AKR1A1 (UniProt P14550)	-0.0811
ZC3H7B (UniProt Q9UGR2)	-0.647
AKAP10 (UniProt O43572)	-0.229
MBNL1 (UniProt Q9NR56)	-0.983
COPS4 (UniProt Q9BT78)	-0.453
KLHL11 (UniProt Q9NVR0)	-0.421
ZNF593 (UniProt O00488)	-6.67
PIEZO1 (UniProt Q92508)	0.19

Target	thermal stability z-score
GPAA1 (UniProt O43292)	0.145
ARL6IP4 (UniProt Q66PJ3)	0.572
TRAF3IP1 (UniProt Q8TDR0)	0.694
PLIN4 (UniProt Q96Q06)	0.741
C20ORF27 (UniProt Q9GZN8)	-0.583
RCCD1 (UniProt A6NED2)	-0.297
SULT1A4|SULT1A3	1.16
CDKN2AIP (UniProt Q9NXV6)	-0.347
B4GALT5 (UniProt O43286)	-0.0207
CHD4 (UniProt Q14839)	-0.759
HSPD1 (UniProt P10809)	-0.432
CSNK2A2 (UniProt P19784)	0.00534
SSBP4 (UniProt Q9BWG4)	-0.402
SMS (UniProt P52788)	4.34
ZNF598 (UniProt Q86UK7)	-0.82
MDH2 (UniProt P40926)	-0.963
SNX9 (UniProt Q9Y5X1)	0.276
C3ORF58 (UniProt Q8NDZ4)	0.287
REXO4 (UniProt Q9GZR2)	-0.149
VPS53 (UniProt Q5VIR6)	-0.0122
ATP5J2 (UniProt P56134)	-0.0845
TSC22D2 (UniProt O75157)	1.16
GTPBP8 (UniProt Q8N3Z3)	-0.0237

Reference: the supplement of paper PMC12463676, “Small-molecule dissolution of stress granules by redox modulation benefits ALS models” (Nature Chemical Biology, 2025)
